Measurements: patent US9670227B2, “Thienopyrimidine derivatives, a process for their preparation and pharmaceutical compositions containing them” (LES LABORATOIRES SERVIER, priority 2013, dated 2017)
Like-named read-outs stand apart in the source and are kept apart here.

Tests used:
Mcl-1 protein = Mcl-1 protein (UniProtKB primary accession number: Q07820) (Homo sapiens, UniProt Q07820); test: Inhibition of Mcl-1 by fluorescence polarisation, Method 1; type: binding; conditions: fluorescence polarisation test; Method 2 values are underlined in the patent (underlining not visible here); read-out: IC50 (M) Mcl-1 FP
Sequence of Mcl-1 protein (Q07820 whole entry): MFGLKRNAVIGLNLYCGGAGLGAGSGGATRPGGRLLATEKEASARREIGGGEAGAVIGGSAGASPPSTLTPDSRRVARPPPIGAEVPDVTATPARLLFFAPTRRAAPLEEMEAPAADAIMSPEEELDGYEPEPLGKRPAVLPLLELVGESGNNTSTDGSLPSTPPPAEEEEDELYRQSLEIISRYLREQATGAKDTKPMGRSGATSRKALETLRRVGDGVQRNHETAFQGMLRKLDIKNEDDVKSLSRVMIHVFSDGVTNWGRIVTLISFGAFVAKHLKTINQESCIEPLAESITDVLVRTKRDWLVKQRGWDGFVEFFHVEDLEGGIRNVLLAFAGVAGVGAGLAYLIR
In short: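 FP competition, 11-point compound titration in 5% final DMSO; protein and labelled probe at 5 nM and 1 nM final in HEPES/NaCl/Tween 20 buffer, pH 7.4.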

[1] = test system: H929 multiple myeloma tumour line; test: In vitro cytotoxicity, Microculture Tetrazolium Assay; type: cell-based; conditions: H929 cells, 48 hours exposure, MTT, read-out: IC50 (μM) MTT H929
Method: The cytotoxicity studies were carried out on the H929 multiple myeloma tumour line.
The cells are distributed onto microplates and exposed to the test compounds for 48 hours.

Row | IC50 (Mcl-1 protein) | Compound | IC50 ([1]; Homo sapiens, NCI-H929, 48 h) | IC50 [1]
1 | 1.5e-08 M | COc1ccccc1CC(Oc1ncnc2sc(-c3ccco3)c(-c3ccc(OCCN)c(Cl)c3C)c12)C(=O)O [Example 319, (2R)-2-({(5Sa)-5-[4-(2-aminoethoxy)-3-chloro-2-methylphenyl]-6-(furan-2-yl)thieno[2,3-d]pyrimidin-4-yl}oxy)-3-(2-methoxyphenyl)propanoic acid] | 0.834 µM | –
2 | 6.5e-09 M | COc1ccccc1CC(Oc1ncnc2sc(-c3ccco3)c(-c3ccc(OCCN(C)C)c(Cl)c3C)c12)C(=O)O [Example 320, (2R)-2-{[(5Sa)-5-{3-chloro-4-[2-(dimethylamino)ethoxy]-2-methylphenyl}-6-(furan-2-yl)thieno[2,3-d]pyrimidin-4-yl]oxy}-3-(2-methoxyphenyl)propanoic acid] | 0.471 µM | –
3 | 4.3e-09 M | CCN1CCN(CCOc2ccc(-c3c(-c4ccco4)sc4ncnc(OC(Cc5ccccc5OC)C(=O)O)c34)c(C)c2Cl)CC1 [Example 322, (2R)-2-{[(5Sa)-5-{3-chloro-4-[2-(4-ethylpiperazin-1-yl)ethoxy]-2-methylphenyl}-6-(furan-2-yl)thieno[2,3-d]pyrimidin-4-yl]oxy}-3-(2-methoxyphenyl)propanoic acid] | 0.113 µM | –
4 | 1.5e-08 M | COc1ccccc1CC(Oc1ncnc2sc(-c3ccco3)c(-c3ccc(OCCN4CCN(C(C)C)CC4)c(Cl)c3C)c12)C(=O)O [Example 324, (2R)-2-{[(5Sa)-5-(3-chloro-2-methyl-4-{2-[4-(propan-2-yl)piperazin-1-yl]ethoxy}phenyl)-6-(furan-2-yl)thieno[2,3-d]pyrimidin-4-yl]oxy}-3-(2-methoxyphenyl)propanoic acid] | 0.254 µM | –
5 | 5e-09 M | COc1ccccc1CC(Oc1ncnc2sc(-c3ccco3)c(-c3ccc(OCCN4CCN(CC(F)F)CC4)c(Cl)c3C)c12)C(=O)O [Example 328, (2R)-2-{[(5Sa)-5-(3-chloro-4-{2-[4-(2,2-difluoroethyl)piperazin-1-yl]ethoxy}-2-methylphenyl)-6-(furan-2-yl)thieno[2,3-d]pyrimidin-4-yl]oxy}-3-(2-methoxyphenyl)propanoic acid] | 3.03 µM | –
6 | 6e-08 M | COc1ccccc1CC(Oc1ncnc2sc(-c3ccco3)c(-c3ccc(OCCN4CCN(Cc5ccccc5)CC4)c(Cl)c3C)c12)C(=O)O [Example 329, (2R)-2-{[(5Sa)-5-{4-[2-(4-benzylpiperazin-1-yl)ethoxy]-3-chloro-2-methylphenyl}-6-(furan-2-yl)thieno[2,3-d]pyrimidin-4-yl]oxy}-3-(2-methoxyphenyl)propanoic acid] | 3.31 µM | –
7 | 8.3e-09 M | COCCN1CCN(CCOc2ccc(-c3c(-c4ccco4)sc4ncnc(OC(Cc5ccccc5OC)C(=O)O)c34)c(C)c2Cl)CC1 [Example 330, (2R)-2-{[(5Sa)-5-(3-chloro-4-{2-[4-(2-methoxyethyl)piperazin-1-yl]ethoxy}-2-methylphenyl)-6-(furan-2-yl)thieno[2,3-d]pyrimidin-4-yl]oxy}-3-(2-methoxyphenyl)propanoic acid] | 1.17 µM | –
8 | 6e-09 M | CNCCOc1ccc(-c2c(-c3ccco3)sc3ncnc(OC(Cc4ccccc4OC)C(=O)O)c23)c(C)c1Cl [Example 331, (2R)-2-{[(5Sa)-5-{3-chloro-2-methyl-4-[2-(methylamino)ethoxy]phenyl}-6-(furan-2-yl)thieno[2,3-d]pyrimidin-4-yl]oxy}-3-(2-methoxyphenyl)propanoic acid] | 0.394 µM | –
9 | 1.2e-08 M | CCc1c(-c2c(-c3ccco3)sc3ncnc(OC(Cc4ccccc4OC)C(=O)O)c23)ccc(OCCN2CCN(C)CC2)c1Cl [Example 335, (2R)-2-{[(5Sa)-5-{3-chloro-2-ethyl-4-[2-(4-methylpiperazin-1-yl)ethoxy]phenyl}-6-(furan-2-yl)thieno[2,3-d]pyrimidin-4-yl]oxy}-3-(2-methoxyphenyl)propanoic acid] | 0.217 µM | –
10 | 3.8e-08 M | COc1ccccc1C[C@@H](Oc1ncnc2sc(-c3ccco3)c(-c3ccc(OCCN4CCN(C)CC4)c(Cl)c3F)c12)C(=O)O [Example 337, (2R)-2-{[5-{3-chloro-2-fluoro-4-[2-(4-methylpiperazin-1-yl)ethoxy]phenyl}-6-(furan-2-yl)thieno[2,3-d]pyrimidin-4-yl]oxy}-3-(2-methoxyphenyl)propanoic acid] | 1.87 µM | –
11 | 3e-08 M | Cc1c(-c2c(-c3ccco3)sc3ncnc(OC(Cc4ccccc4OC(F)F)C(=O)O)c23)ccc(OCCN2CCN(C)CC2)c1Cl [Example 338, (2R)-2-{[(5Sa)-5-{3-chloro-2-methyl-4-[2-(4-methylpiperazin-1-yl)ethoxy]phenyl}-6-(furan-2-yl)thieno[2,3-d]pyrimidin-4-yl]oxy}-3-[2-(difluoromethoxy)phenyl]propanoic acid] | 1.04 µM | –
12 | 3.5e-08 M | Cc1c(-c2c(-c3ccco3)sc3ncnc(OC(Cc4ccccc4F)C(=O)O)c23)ccc(OCCN2CCN(C)CC2)c1Cl [Example 341, (2S)-2-{[(5Ra)-5-{3-chloro-2-methyl-4-[2-(4-methylpiperazin-1-yl)ethoxy]phenyl}-6-(furan-2-yl)thieno[2,3-d]pyrimidin-4-yl]oxy}-3-(2-fluorophenyl)propanoic acid] | – | 0.706 µM
13 | 1.6e-08 M | COc1ccc(C)cc1CC(Oc1ncnc2sc(-c3ccco3)c(-c3ccc(OCCN4CCN(C)CC4)c(Cl)c3C)c12)C(=O)O [Example 344, (2R)-2-{[(5Sa)-5-{3-chloro-2-methyl-4-[2-(4-methylpiperazin-1-yl)ethoxy]phenyl}-6-(furan-2-yl)thieno[2,3-d]pyrimidin-4-yl]oxy}-3-(2-methoxy-5-methylphenyl)propanoic acid] | 0.22 µM | –
14 | 8.6e-09 M | COc1ccc(F)cc1CC(Oc1ncnc2sc(-c3ccco3)c(-c3ccc(OCCN4CCN(C)CC4)c(Cl)c3C)c12)C(=O)O [Example 345, (2R)-2-{[(5Sa)-5-{3-chloro-2-methyl-4-[2-(4-methylpiperazin-1-yl)ethoxy]phenyl}-6-(furan-2-yl)thieno[2,3-d]pyrimidin-4-yl]oxy}-3-(5-fluoro-2-methoxyphenyl)propanoic acid] | 0.322 µM | –
15 | 1.7e-08 M | COc1cc(F)ccc1CC(Oc1ncnc2sc(-c3ccco3)c(-c3ccc(OCCN4CCN(C)CC4)c(Cl)c3C)c12)C(=O)O [Example 346, (2R)-2-{[(5Sa)-5-{3-chloro-2-methyl-4-[2-(4-methylpiperazin-1-yl)ethoxy]phenyl}-6-(furan-2-yl)thieno[2,3-d]pyrimidin-4-yl]oxy}-3-(4-fluoro-2-methoxyphenyl)propanoic acid] | 0.063 µM | –
16 | 1.4e-08 M | Cc1cccc(C[C@@H](Oc2ncnc3sc(-c4ccco4)c(-c4ccc(OCCN5CCN(C)CC5)c(Cl)c4C)c23)C(=O)O)c1 [Example 347, (2R)-2-{[(5Sa)-5-{3-chloro-2-methyl-4-[2-(4-methylpiperazin-1-yl)ethoxy]phenyl}-6-(furan-2-yl)thieno[2,3-d]pyrimidin-4-yl]oxy}-3-(3-methylphenyl)propanoic acid] | – | 0.25 µM
17 | 2.1e-08 M | Cc1c(-c2c(-c3ccco3)sc3ncnc(OC(Cc4cccc(F)c4)C(=O)O)c23)ccc(OCCN2CCN(C)CC2)c1Cl [Example 348, (2R)-2-{[(5Sa)-5-{3-chloro-2-methyl-4-[2-(4-methylpiperazin-1-yl)ethoxy]phenyl}-6-(furan-2-yl)thieno[2,3-d]pyrimidin-4-yl]oxy}-3-(3-fluorophenyl)propanoic acid] | 0.346 µM | –
18 | 2.7e-08 M | COc1cccc(CC(Oc2ncnc3sc(-c4ccco4)c(-c4ccc(OCCN5CCN(C)CC5)c(Cl)c4C)c23)C(=O)O)c1 [Example 349, (2R)-2-{[(5Sa)-5-{3-chloro-2-methyl-4-[2-(4-methylpiperazin-1-yl)ethoxy]phenyl}-6-(furan-2-yl)thieno[2,3-d]pyrimidin-4-yl]oxy}-3-(3-methoxyphenyl)propanoic acid] | 2.46 µM | –
19 | 1.5e-08 M | COc1c(C)cccc1CC(Oc1ncnc2sc(-c3ccco3)c(-c3ccc(OCCN4CCN(C)CC4)c(Cl)c3C)c12)C(=O)O [Example 351, (2R)-2-{[(5Sa)-5-{3-chloro-2-methyl-4-[2-(4-methylpiperazin-1-yl)ethoxy]phenyl}-6-(furan-2-yl)thieno[2,3-d]pyrimidin-4-yl]oxy}-3-(2-methoxy-3-methylphenyl)propanoic acid] | 0.526 µM | –
20 | 1.4e-08 M | COc1c(F)cccc1CC(Oc1ncnc2sc(-c3ccco3)c(-c3ccc(OCCN4CCN(C)CC4)c(Cl)c3C)c12)C(=O)O [Example 352, (2R)-2-{[(5Sa)-5-{3-chloro-2-methyl-4-[2-(4-methylpiperazin-1-yl)ethoxy]phenyl}-6-(furan-2-yl)thieno[2,3-d]pyrimidin-4-yl]oxy}-3-(3-fluoro-2-methoxyphenyl)propanoic acid] | 0.91 µM | –
21 | 1.1e-08 M | Cc1ccccc1CC(Oc1ncnc2sc(-c3ccco3)c(-c3ccc(OCCN4CCN(C)CC4)c(Cl)c3C)c12)C(=O)O [Example 354, (2R)-2-{[(5Sa)-5-{3-chloro-2-methyl-4-[2-(4-methylpiperazin-1-yl)ethoxy]phenyl}-6-(furan-2-yl)thieno[2,3-d]pyrimidin-4-yl]oxy}-3-(2-methylphenyl)propanoic acid] | 0.544 µM | –
22 | 5.5e-07 M | Cc1c(-c2c(-c3ccco3)sc3ncnc(OC(Cc4ccccc4F)C(=O)O)c23)ccc(OCCN2CCN(C)CC2)c1Cl [Example 357, (2R)-2-{[(5Sa)-5-{3-chloro-2-methyl-4-[2-(4-methylpiperazin-1-yl)ethoxy]phenyl}-6-(furan-2-yl)thieno[2,3-d]pyrimidin-4-yl]oxy}-3-(2-fluorophenyl)propanoic acid] | – | 3.39 µM
